According to the supplement of paper PMC10307832:

Legend:
Assay in all cases: relative viability (nuclei count vs DMSO), 5 days (fraction); higher = more cells survive
201T = tested on: 201T
How it was run: (§1)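 Nuclei were stained with Hoechst during a one-step fixation (final 0.05% Triton X-100, 1% formaldehyde, 1 ug/ml Hoechst) carried out 5 days after dosing, then counted on 4× images. The cells, lung cancer lines in 1536-well plates, had been dosed by pin tool the day after seeding with one drug alone or a fixed anchor-drug dose plus five library-drug doses (not always all listed) in √10 steps. Relative viability is the nuclei count in treated wells divided by that in vehicle wells, and each value is the median of duplicate plates.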

BEN = tested on: BEN
How it was run: as §1

CAL-12T = tested on: CAL-12T
How it was run: as §1

HCC-44 = tested on: HCC-44
How it was run: as §1

HCC-827 = tested on: HCC-827
How it was run: as §1

HOP-62 = tested on: HOP-62
How it was run: as §1

LCLC-103H = tested on: LCLC-103H
How it was run: as §1

LCLC-97TM1 = tested on: LCLC-97TM1
How it was run: as §1

LXF-289 = tested on: LXF-289
How it was run: as §1

NCI-H1355 = tested on: NCI-H1355
How it was run: as §1

NCI-H1395 = tested on: NCI-H1395
How it was run: as §1

NCI-H1437 = tested on: NCI-H1437
How it was run: as §1

NCI-H1650 = tested on: NCI-H1650
How it was run: as §1

NCI-H1793 = tested on: NCI-H1793
How it was run: as §1

NCI-H2023 = tested on: NCI-H2023
How it was run: as §1

NCI-H2087 = tested on: NCI-H2087
How it was run: as §1

NCI-H2228 = tested on: NCI-H2228
How it was run: as §1

NCI-H2405 = tested on: NCI-H2405
How it was run: as §1

NCI-H3122 = tested on: NCI-H3122
How it was run: as §1

NCI-H322M = tested on: NCI-H322M
How it was run: as §1

NCI-H647 = tested on: NCI-H647
How it was run: as §1

RERF-LC-KJ = tested on: RERF-LC-KJ
How it was run: as §1

SK-LU-1 = tested on: SK-LU-1
How it was run: as §1

In the case of `Clc1ccc(Nc2nnc(Cc3ccncc3)c3ccccc23)cc1` [Vatalanib] + Nc1nc2[nH]cc(CCc3ccc(C(=O)N[C@@H](CCC(=O)O)C(=O)O)cc3)c2c(=O)[nH]1 [Pemetrexed] (partner 0.2 µM), the relative viability (201T; first compound 0.04 µM) is reported as 0.305, the relative viability (201T; first compound 0.1265 µM) is reported as 0.335 and the relative viability (201T; first compound 0.4 µM) is reported as 0.337. The relative viability (201T; first compound 1.265 µM) was 0.359, the relative viability (201T; first compound 4 µM) was 0.311 and the relative viability (BEN; first compound 0.04 µM) was 0.662. It also gave a relative viability (BEN; first compound 0.1265 µM) of 0.659, a relative viability (BEN; first compound 0.4 µM) of 0.443 and a relative viability (BEN; first compound 1.265 µM) of 0.681. For the same compound, the relative viability (BEN; first compound 4 µM) was 0.743, the relative viability (CAL-12T; first compound 0.04 µM) was 1.15 and the relative viability (CAL-12T; first compound 0.1265 µM) was 1.15. The relative viability (CAL-12T; first compound 0.4 µM) was 1.19, the relative viability (CAL-12T; first compound 1.265 µM) was 1.12 and the relative viability (CAL-12T; first compound 4 µM) was 1.22. For the same compound, the relative viability (HCC-44; first compound 0.04 µM) was 0.593, the relative viability (HCC-44; first compound 0.1265 µM) was 0.61 and the relative viability (HCC-44; first compound 0.4 µM) was 0.673. It also gave a relative viability (HCC-44; first compound 1.265 µM) of 0.638, a relative viability (HCC-44; first compound 4 µM) of 0.683 and a relative viability (HCC-827; first compound 0.04 µM) of 0.241. For the same compound, the relative viability (HCC-827; first compound 0.1265 µM) was 0.232, the relative viability (HCC-827; first compound 1.265 µM) was 0.263 and the relative viability (HCC-827; first compound 4 µM) was 0.231. It also gave a relative viability (HOP-62; first compound 0.04 µM) of 0.273, a relative viability (HOP-62; first compound 0.1265 µM) of 0.336 and a relative viability (HOP-62; first compound 0.4 µM) of 0.277. The relative viability (HOP-62; first compound 1.265 µM) was 0.275, the relative viability (HOP-62; first compound 4 µM) was 0.349 and the relative viability (LCLC-103H; first compound 0.04 µM) was 0.343. It also gave a relative viability (LCLC-103H; first compound 0.1265 µM) of 0.428, a relative viability (LCLC-103H; first compound 0.4 µM) of 0.449 and a relative viability (LCLC-103H; first compound 1.265 µM) of 0.487. The relative viability (LCLC-103H; first compound 4 µM) was 0.453, the relative viability (LCLC-97TM1; first compound 0.04 µM) was 0.2 and the relative viability (LCLC-97TM1; first compound 0.1265 µM) was 0.177. The relative viability (LCLC-97TM1; first compound 0.4 µM) was 0.177, the relative viability (LCLC-97TM1; first compound 1.265 µM) was 0.149 and the relative viability (LCLC-97TM1; first compound 4 µM) was 0.172. For the same compound, the relative viability (LXF-289; first compound 0.04 µM) was 0.887, the relative viability (LXF-289; first compound 0.1265 µM) was 0.879 and the relative viability (LXF-289; first compound 0.4 µM) was 0.955. The relative viability (LXF-289; first compound 1.265 µM) was 0.908, the relative viability (LXF-289; first compound 4 µM) was 0.822 and the relative viability (NCI-H1355; first compound 0.04 µM) was 0.965. The relative viability (NCI-H1355; first compound 0.1265 µM) was 1.01, the relative viability (NCI-H1355; first compound 0.4 µM) was 1.08 and the relative viability (NCI-H1355; first compound 1.265 µM) was 0.979. The relative viability (NCI-H1355; first compound 4 µM) was 0.936, the relative viability (NCI-H1395; first compound 0.04 µM) was 0.855 and the relative viability (NCI-H1395; first compound 0.1265 µM) was 0.764. It also gave a relative viability (NCI-H1395; first compound 0.4 µM) of 0.767, a relative viability (NCI-H1395; first compound 4 µM) of 0.842 and a relative viability (NCI-H1437; first compound 0.04 µM) of 0.33. It also gave a relative viability (NCI-H1437; first compound 0.1265 µM) of 0.342, a relative viability (NCI-H1437; first compound 0.4 µM) of 0.328 and a relative viability (NCI-H1437; first compound 1.265 µM) of 0.26. For the same compound, the relative viability (NCI-H1437; first compound 4 µM) was 0.275, the relative viability (NCI-H1650; first compound 0.04 µM) was 0.359 and the relative viability (NCI-H1650; first compound 0.1265 µM) was 0.305. It also gave a relative viability (NCI-H1650; first compound 0.4 µM) of 0.323, a relative viability (NCI-H1650; first compound 1.265 µM) of 0.388 and a relative viability (NCI-H1650; first compound 4 µM) of 0.388. For the same compound, the relative viability (NCI-H1793; first compound 0.04 µM) was 0.789, the relative viability (NCI-H1793; first compound 0.1265 µM) was 0.817 and the relative viability (NCI-H1793; first compound 0.4 µM) was 1.06. The relative viability (NCI-H1793; first compound 1.265 µM) was 0.747, the relative viability (NCI-H1793; first compound 4 µM) was 0.714 and the relative viability (NCI-H2023; first compound 0.04 µM) was 0.263. The relative viability (NCI-H2023; first compound 0.1265 µM) was 0.21, the relative viability (NCI-H2023; first compound 0.4 µM) was 0.215 and the relative viability (NCI-H2023; first compound 1.265 µM) was 0.242. The relative viability (NCI-H2023; first compound 4 µM) was 0.202, the relative viability (NCI-H2087; first compound 0.04 µM) was 0.666 and the relative viability (NCI-H2087; first compound 0.1265 µM) was 0.659. For the same compound, the relative viability (NCI-H2087; first compound 0.4 µM) was 0.685, the relative viability (NCI-H2087; first compound 1.265 µM) was 0.64 and the relative viability (NCI-H2087; first compound 4 µM) was 0.682. It also gave a relative viability (NCI-H2228; first compound 0.04 µM) of 0.352, a relative viability (NCI-H2228; first compound 0.1265 µM) of 0.304 and a relative viability (NCI-H2228; first compound 0.4 µM) of 0.314. It also gave a relative viability (NCI-H2228; first compound 1.265 µM) of 0.376, a relative viability (NCI-H2228; first compound 4 µM) of 0.374 and a relative viability (NCI-H2405; first compound 0.04 µM) of 1.04. It also gave a relative viability (NCI-H2405; first compound 0.1265 µM) of 1.04, a relative viability (NCI-H2405; first compound 0.4 µM) of 0.981 and a relative viability (NCI-H2405; first compound 4 µM) of 1.01. For the same compound, the relative viability (NCI-H3122; first compound 0.04 µM) was 0.195, the relative viability (NCI-H3122; first compound 0.1265 µM) was 0.19 and the relative viability (NCI-H3122; first compound 0.4 µM) was 0.191. For the same compound, the relative viability (NCI-H3122; first compound 1.265 µM) was 0.199, the relative viability (NCI-H3122; first compound 4 µM) was 0.189 and the relative viability (NCI-H322M; first compound 0.04 µM) was 0.609. For the same compound, the relative viability (NCI-H322M; first compound 0.1265 µM) was 0.656, the relative viability (NCI-H322M; first compound 0.4 µM) was 0.678 and the relative viability (NCI-H322M; first compound 4 µM) was 0.572. It also gave a relative viability (NCI-H647; first compound 0.04 µM) of 0.192, a relative viability (NCI-H647; first compound 0.1265 µM) of 0.163 and a relative viability (NCI-H647; first compound 0.4 µM) of 0.163. The relative viability (NCI-H647; first compound 1.265 µM) was 0.187, the relative viability (NCI-H647; first compound 4 µM) was 0.19 and the relative viability (RERF-LC-KJ; first compound 0.04 µM) was 0.489. For the same compound, the relative viability (RERF-LC-KJ; first compound 0.1265 µM) was 0.476, the relative viability (RERF-LC-KJ; first compound 0.4 µM) was 0.484 and the relative viability (RERF-LC-KJ; first compound 1.265 µM) was 0.502. The relative viability (RERF-LC-KJ; first compound 4 µM) was 0.458, the relative viability (SK-LU-1; first compound 0.04 µM) was 0.966 and the relative viability (SK-LU-1; first compound 0.1265 µM) was 0.881. It also gave a relative viability (SK-LU-1; first compound 0.4 µM) of 1.14, a relative viability (SK-LU-1; first compound 1.265 µM) of 0.901 and a relative viability (SK-LU-1; first compound 4 µM) of 0.928.
